Where a SMILES comes first, the peptide text is derived from it. [ ]: non-standard residue; d: D form. βAla = NCCC(=O)O
How the values were obtained:
[1] = test system: anti-hCG monoclonal antibody directed against a portion of the β-subunit of hCG; test: EIA binding of BSA-conjugated peptide with anti-hCG monoclonal antibody; conditions: peptide conjugated to BSA, absorbed on 96-well plate; antibody overnight at 4° C; alkaline phosphatase labeled protein A
Text: The peptide was conjugated through its thiol group to BSA using a heterobifunctional cross-linking reagent (succinimidyl 4-(N-maleimidomethyl)cyclohexane-1-carboxylate). The conjugates were first absorbed on the wells of a ninety-six well plate. Nonspecific binding sites on the surface was masked by unlabeled BSA. […] Alkaline phosphatase labeled protein A was used for the color development.

[2] = test system: second monoclonal antibody against hCG

| Compound | binding with anti-hCG antibody (EIA response) [1] | Krel (relative binding affinity) [2] |
| --- | --- | --- |
| CC(C)[C@H](NC(=O)[C@@H]1CCCN1C(=O)CNC(=O)[C@H](C)NC(=O)[C@H](CO)NC(=O)CNC(=O)[C@H](CO)NC(=O)CN)C(=O)N[C@@H](Cc1ccc(O)cc1)C(=O)N[C@@H](CO)C(=O)N[C@@H](Cc1ccccc1)C(=O)NCC(=O)NCCC(=O)O [SEQ ID NO: 20, Gly--Ser--Gly--Ser--Ala--Gly--Pro--Val--Tyr--Ser--Phe--Gly--βAla] (H-GSGSAGPVYSFG[βAla]-OH) |  | 2.0 |
| C[C@H](NC(=O)[C@H](CO)NC(=O)CNC(=O)[C@H](CO)NC(=O)CN)C(=O)NCC(=O)N1CCC[C@H]1C(=O)N[C@@H](CCCNC(=N)N)C(=O)N[C@@H](Cc1ccc(O)cc1)C(=O)N[C@@H](CC(N)=O)C(=O)N[C@@H](Cc1ccccc1)C(=O)NCC(=O)NCCC(=O)O [SEQ ID NO: 21, Gly--Ser--Gly--Ser--Ala--Gly--Pro--Arg--Tyr--Asn--Phe--Gly--βAla] (H-GSGSAGPRYNFG[βAla]-OH) |  | 1.6 |
| CC[C@H](C)[C@H](NC(=O)[C@@H]1CCCN1C(=O)CNC(=O)[C@H](C)NC(=O)[C@H](CO)NC(=O)CNC(=O)[C@H](CO)NC(=O)CN)C(=O)N[C@@H](Cc1ccc(O)cc1)C(=O)N[C@@H](CC(=O)O)C(=O)N[C@@H](Cc1ccccc1)C(=O)NCC(=O)NCCC(=O)O [SEQ ID NO: 22, Gly--Ser--Gly--Ser--Ala--Gly--Pro--Ile--Tyr--Asp--Phe--Gly--βAla] (H-GSGSAGPIYDFG[βAla]-OH) |  | 1.3 |
| CC[C@H](C)[C@H](NC(=O)[C@@H]1CCCN1C(=O)CNC(=O)[C@H](C)NC(=O)[C@H](CO)NC(=O)CNC(=O)[C@H](CO)NC(=O)CN)C(=O)N[C@@H](Cc1ccc(O)cc1)C(=O)N[C@H](C(=O)N[C@@H](Cc1ccccc1)C(=O)NCC(=O)NCCC(=O)O)C(C)C [SEQ ID NO: 19, Gly--Ser--Gly--Ser--Ala--Gly--Pro--Ile--Tyr--Val--Phe--Gly--βAla] (H-GSGSAGPIYVFG[βAla]-OH) |  | 6.6 |

Results, then the compound that gave them:

| binding with anti-hCG antibody (EIA response) [1] | Krel (relative binding affinity) [2] | Compound |
| --- | --- | --- |
| positive results |  | H2 N-Gly-Gly-Arg-Leu-Pro-Gly-Pro-Ser-Asp-Cys-Gly-COOH (H-GGRLPGPSDCG-OH) [EXAMPLE I] |
|  | 1.0 | CSCC[C@H](NC(=O)[C@H](Cc1ccc(O)cc1)NC(=O)[C@H](CCC(N)=O)NC(=O)[C@@H]1CCCN1C(=O)CNC(=O)[C@H](C)NC(=O)[C@H](CO)NC(=O)CNC(=O)[C@H](CO)NC(=O)CN)C(=O)N[C@@H](Cc1ccccc1)C(=O)NCC(=O)NCCC(=O)O [SEQ ID NO: 23, Gly--Ser--Gly--Ser--Ala--Gly--Pro--Gln--Tyr--Met--Phe--Gly--βAla] (H-GSGSAGPQYMFG[βAla]-OH) |

Source: US5380668A (University of Utah Research Foundation, priority 1993, dated 1995)
